# Test results published in US20180099023A1, “METHODS OF TREATING IRON OVERLOAD” (La Jolla Pharmaceutical Company, priority 2016, published 2018).
# Tests used:
# Assay type in all cases: in vivo, human
# serum iron [1] = assay: Serum iron after a single subcutaneous dose of hepcidin in patients (Example 1)
# From the text: Patients were recruited for a multi-day study to observe serum iron levels following administration of hepcidin. All patients who were recruited had either refractory or hemolytic anemia or hemochromatosis. Patients are divided into cohorts and subsequently treated with hepcidin. Treatment consisted of a single subcutaneous (SC) dose of hepcidin on Day 1. Dose escalation with new cohorts occurred only after the patients at each dose level had been observed for a minimum of 3 days and no drug related toxicity had been observed. The starting dose level was 1 mg given via SC injection on Day 1. Doses ranged from 1 mg to 30 mg. Patient cohorts and dosing can be found in Table 1:
# Patients were admitted to the research unit the day before the administration of study drug and discharged following assessments 48 hours post dose. Serum iron, ferritin, transferrin, total iron binding capacity, and unsaturated iron binding capacity were measured on Day 1(baseline) and Day 7 (end of study). Serum iron was also measured at 2, 4, 8, 24, and 48 hours post dosing.
# serum iron [2] = assay: Hepcidin administration in healthy subjects (Example 3)
# Protocol: This study enrolled 32 healthy adult subjects in 4 dose groups of 8 subjects per cohort, with 6 subjects assigned to hepcidin treatment and 2 subjects assigned to placebo in each cohort. The starting dose was 5 mg of hepcidin or placebo; subsequent dose groups received 10 mg, 20 mg, and 30 mg, respectively. Subjects received between one and three 1-mL subcutaneous (SC) injections to deliver the desired dose level. Hepcidin concentration was either 5 mg/mL or 10 mg/mL. For data analysis purposes, placebo subjects for all cohort groups were pooled.
# serum iron [3] = assay: Hepcidin administration in patients at risk for iron overload disorders (Example 2)
# Protocol: Eighteen patients at risk for iron overload disorders (i.e., refractory or hemolytic anemia or hemochromatosis) received one or two 1-mL subcutaneous injections to achieve the desired dose level (1 mg, 5 mg, 10 mg, 20 mg, or 30 mg). Hepcidin concentration ranged from 1 to 15 mg/mL.
# [4] = Baseline (pre-dose) to Day 8/End of Study
substance,measurement,setting,value
hepcidin: 25-amino acid peptide with the amino acid sequence set forth in SEQ ID NO:1 (DTHFPICIFCCGCCHRSKCGMCCKT),Percent Change in Serum Iron from Baseline to Hour 8,"serum iron [1]; 1 mg single SC dose, n = 3, patients with refractory or hemolytic anemia or hemochromatosis",−14.2% (p = 0.203)
same,dose response of serum iron reduction,"serum iron [1]; 1 mg to 20 mg, FIG. 1, p-0.009 for dose response","dose-dependent, statistically significant reduction in serum iron"
same,Percent Change in Serum Iron from Baseline to Hour 8,"serum iron [1]; 5 mg single SC dose, n = 3, patients with refractory or hemolytic anemia or hemochromatosis",−26.7% (p = 0.380)
same,Percent Change in Serum Iron from Baseline to Hour 8,"serum iron [1]; 10 mg single SC dose, n = 3, patients with refractory or hemolytic anemia or hemochromatosis",−45.5% (p = 0.077)
same,reduction of serum iron from baseline to hour 8,"serum iron [1]; 20 mg dose level, p=0.001",55.7%
same,Percent Change in Serum Iron from Baseline to Hour 8,"serum iron [1]; 20 mg single SC dose, n = 6, patients with refractory or hemolytic anemia or hemochromatosis",−55.7% (p = 0.001)
same,reduction of serum iron from baseline to the end of day 7,"serum iron [1]; subjects administered 1 mg, 5 mg, 10 mg or 20 mg, serum iron had not returned to baseline through day 7",18.0%
same,serum iron rebound,serum iron [1]; subjects administered at least 30 mg,rebound effect which resulted in above-baseline serum iron levels within 48 hours of treatment
same,Unsaturated iron binding capacity (UIBC) change from baseline,serum iron [2]; Day 8,no trends in changes from baseline
same,Ferritin change from baseline,"serum iron [2]; Day 8, all treatment groups",increased
same,TSAT % change from baseline,"serum iron [2]; Day 8, all treatment groups",increased
same,total iron binding capacity (TIBC) change from baseline,"serum iron [2]; Day 8, all treatment groups",increased
same,transferrin change from baseline,"serum iron [2]; Day 8, all treatment groups",increased
same,anti-drug antibodies,serum iron [2]; healthy subjects,No anti-drug antibodies were detected
same,"maximum reduction in serum iron, 20 mg versus 30 mg",serum iron [2]; healthy subjects,no apparent difference
same,time for serum iron levels to return to baseline,serum iron [2]; healthy subjects,< 48 h
same,dose response of serum iron reduction,"serum iron [2]; healthy subjects, 5 to 30 mg",larger reductions in serum iron generally associated with increases in dose up to 20 mg
same,dose response of serum iron decrease,serum iron [3]; 1 mg to 30 mg SC,greater decrease in serum iron at higher doses
same,Mean maximum percentage reduction in serum iron,"serum iron [3]; 20-mg dose group, 8 hours post-dose",58%
same,TSAT % level change,serum iron [3]; [4],Decreases
same,ferritin level change,serum iron [3]; [4],Decreases
same,total iron binding capacity (TIBC) change,serum iron [3]; [4],Decreases
same,transferrin level change,serum iron [3]; [4],Decreases
same,serum iron levels compared to baseline,"serum iron [3]; all five dose groups (1, 5, 10, 20, 30 mg SC)",decrease in serum iron levels compared to baseline was generally observed
same,duration of serum iron reduction,serum iron [3]; most patients,sustained up to Day 8 in most patients
same,anti-drug antibodies,serum iron [3]; patients at risk for iron overload disorders,No anti-drug antibodies were detected
